In patent publication US11655216B2 (priority 2016, dated 2023):
Read-outs that look alike come from different tables or passages of the source.

Experiments:
[1] = molecular target: T1, glutathione-S-transferase (GST) tagged LXRbeta LBD (ligand binding domain) (Homo sapiens, UniProt P55055); experiment: LanthaScreen TR-FRET Liver X Receptor Coactivator Assay, LXR beta; format: biochemical; conditions: for EC50: LXR beta IP, potency (Inflection Point), compound-induced co-activator recruitment, TR-FRET; for Emax: read-out: LXR beta actiivty at max dose, efficacy (% Emax) in relation to reference dual agonist T0901317
T1 construct: purchased Invitrogen pv4658
T1 sequence (P55055 222-460 limits assumed): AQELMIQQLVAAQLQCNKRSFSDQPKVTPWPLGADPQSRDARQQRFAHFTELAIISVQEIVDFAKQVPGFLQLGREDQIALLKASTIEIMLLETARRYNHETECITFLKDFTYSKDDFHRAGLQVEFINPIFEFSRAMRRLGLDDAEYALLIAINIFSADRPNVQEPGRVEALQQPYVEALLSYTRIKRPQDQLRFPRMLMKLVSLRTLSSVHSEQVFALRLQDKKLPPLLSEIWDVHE
How it was run: (§1)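 Measures ligand-driven coactivator peptide binding by time-resolved energy transfer between terbium-tagged anti-GST antibody and fluorescein-labelled peptide. Incubation is at room temperature.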

[2] = molecular target: T2, glutathione-S-transferase (GST) tagged LXRalpha LBD (ligand binding domain) (Homo sapiens, UniProt Q13133); experiment: biochemical; conditions: for LXR alpha IP / EC50: potency (Inflection Point), compound-induced co-activator recruitment, TR-FRET
T2 construct: purchased Invitrogen pv4655
T2 sequence (Q13133 209-447 limits assumed): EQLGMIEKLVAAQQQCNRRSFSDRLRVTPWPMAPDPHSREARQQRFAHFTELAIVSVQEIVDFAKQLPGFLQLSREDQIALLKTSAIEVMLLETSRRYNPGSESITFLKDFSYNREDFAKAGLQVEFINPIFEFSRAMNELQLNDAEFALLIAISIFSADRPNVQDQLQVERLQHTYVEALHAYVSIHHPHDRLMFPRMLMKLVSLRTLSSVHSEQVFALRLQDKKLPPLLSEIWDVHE
How it was run: as §1

[3] = read-out: LXR alpha actiivty at max dose, efficacy (% Emax) in relation to reference dual agonist T0901317

SMILES	EC50 [1] [nM]	Emax [1] [%]	LXR alpha IP [2]	Emax [2, 3] [%]	Emax ([2]; efficacy (% Emax) in relation to reference dual agonist T0901317, read-out: LXR alpha actiivty at max dose) [%]	EC50 ([2]; read-out: LXR alpha IP) [nM]	EC50 ([2]; LXR alpha IP) [nM]	LXR beta actiivty at max dose ([1]; efficacy (% Emax) in relation to reference dual agonist T0901317) [%]
CN(C)C(=O)c1ccc(OC[C@@H]2C[C@H]2C2CCN(C(=O)C(C)(C)c3ccccc3)CC2)cc1Cl (single isomer, unassigned) [Example 32-4, 2-chloro-N,N-dimethyl-4-(((1R,2S or 1S,2R)-2-(1-(2-methyl-2-phenylpropanoyl)piperidin-4-yl)cyclopropyl)methoxy) benzamide]	163	60	No IP	0	–	–	–	–
COc1cccc(C(O)(C(=O)N2CCC(C(C)CCCOc3ccc(C(=O)N(C)C)c(Cl)c3)CC2)C(F)(F)F)c1 (single isomer, unassigned) [Example 26-1, 2-chloro-N,N-dimethyl-4-((R or S)-4-(1-((R or S)-3,3,3-trifluoro-2-hydroxy-2-(3-methoxyphenyl)propanoyl)piperidin-4-yl)pentyloxy)benzamide]	8	65	–	–	12	236	–	–
O=C(c1ccc(OCCCCC2CCN(C(=O)C(O)(c3ccccc3)C(F)(F)F)CC2)cc1Cl)N1C[C@H]2CC[C@@H]1C2 (single isomer, unassigned) [Example 8-14, (R or S)-1-(4-(4-(4-((1R,4S)-2-azabicyclo[2.2.1]heptane-2-carbonyl)-3-chlorophenoxy)butyl)piperidin-1-yl)-3,3,3-trifluoro-2-hydroxy-2-phenylpropan-1-one]	38	48	–	19	–	–	227	–
CN(C)C(=O)c1ccc(OCCCCC2CCN(C(=O)C(O)(c3cccc(F)c3)C(F)(F)F)CC2)cc1Cl (single isomer, unassigned) [Example 3-4, (R or S)-2-chloro-N,N-dimethyl-4-(4-(1-(3,3,3-trifluoro-2-(3-fluorophenyl)-2-hydroxypropanoyl)piperidin-4-yl)butoxy)benzamide]	7	73	–	41	–	–	126	–
CN(C)C(=O)c1ccc(OCC2(CC3CCN(C(=O)C(O)(c4ccccc4)C(F)(F)F)CC3)CC2)cc1Cl (single isomer, unassigned) [Example 17-1, (R or S)-2-chloro-N,N-dimethyl-4-((1-((1-(3,3,3-trifluoro-2-hydroxy-2-phenylpropanoyl)piperidin-4-yl)methyl)cyclopropyl)methoxy)benzamide]	188	77	–	19	–	–	1630	–
CCNC(=O)c1ccc(OCCCCC2CCN(C(=O)[C@](O)(c3ccccc3)C(F)(F)F)CC2)cc1Cl (single isomer, unassigned) [Example 8-10, (R or S)-2-chloro-N-ethyl-4-(4-(1-(3,3,3-trifluoro-2-hydroxy-2-phenylpropanoyl)piperidin-4-yl)butoxy) benzamide]	30	76	–	28	–	–	719	–
COc1cccc(C(O)(C(=O)N2CCC(C(C)CC(C)COc3ccc(C(=O)N(C)C)c(Cl)c3)CC2)C(F)(F)F)c1 (single isomer, unassigned) [Example 31-2, 2-chloro-N,N-dimethyl-4-(2-methyl-4-(1-((R or S)-3,3,3-trifluoro-2-hydroxy-2-(3-methoxyphenyl)propanoyl)piperidin-4-yl)pentyloxy)benzamide]	19	38	No IP	3	–	–	–	–
COc1cccc(C(O)(C(=O)N2CCC3(CCC(Oc4ccc(C(=O)N(C)C)c(Cl)n4)CC3)CC2)C(F)(F)F)c1 (single isomer, unassigned) [Example 1-2, 2-chloro-N,N-dimethyl-6-(3-((S or R)-3,3,3-trifluoro-2-hydroxy-2-(3-methoxyphenyl)propanoyl)-3-azaspiro[5.5]undecan-9-yloxy)nicotinamide]	92	–	–	35	–	–	1880	120
C[C@@H](CCC1CCN(C(=O)[C@](O)(c2cc(F)cc(F)c2)C(F)(F)F)CC1)COc1ccc(C(=O)N(C)C)c(Cl)c1 (single isomer, unassigned) [Example 23-3, 2-chloro-4-((S or R)-4-(1-((R or S)-2-(3,5-difluorophenyl)-3,3,3-trifluoro-2-hydroxypropanoyl)piperidin-4-yl)-2-methylbutoxy)-N,N-dimethylbenzamide]	12	89	–	42	–	–	150	–
CN(C)C(=O)c1ccc(O[C@H]2C[C@@H](CC3CCN(C(=O)[C@](O)(c4cccc(OC5CC5)c4)C(F)(F)F)CC3)C2)cc1Cl (single isomer, unassigned) [Example 37-2, 2-chloro-4-((1R,3s)-3-((1-((R or S)-2-(3-cyclopropoxyphenyl)-3,3,3-trifluoro-2-hydroxypropanoyl)piperidin-4-yl)methyl)cyclobutoxy)-N,N-dimethylbenzamide]	40	109	No IP	2	–	–	–	–
CN(C)C(=O)c1ccc(OCCCCC2CCN(C(=O)C(O)(c3ccccc3)C(F)(F)F)CC2)nc1C#N (stereo not drawn) [Example 4-1, 2-cyano-N,N-dimethyl-6-(4-(1-(3,3,3-trifluoro-2-hydroxy-2-phenylpropanoyl)piperidin-4-yl)butoxy)nicotinamide]	30	77	–	37	–	–	419	–
O=C(N[C@H]1CCOC1)c1ccc(OCCCCC2CCN(C(=O)[C@](O)(c3ccccc3)C(F)(F)F)CC2)cc1Cl (single isomer, unassigned) [Example 8-6, 2-chloro-N-((S or R)-tetrahydrofuran-3-yl)-4-(4-(1-((R or S)-3,3,3-trifluoro-2-hydroxy-2-phenylpropanoyl)piperidin-4-yl)butoxy) benzamide]	86	75	–	35	–	–	1050	–
CNC(=O)c1ccc(OCCCCC2CCN(C(=O)[C@](O)(c3cccc(OC)c3)C(F)(F)F)CC2)cc1Cl (single isomer, unassigned) [Example 8-18, (R or S)-2-chloro-N-methyl-4-(4-(1-(3,3,3-trifluoro-2-hydroxy-2-(3-methoxyphenyl)propanoyl)piperidin-4-yl)butoxy) benzamide]	14	91	–	31	–	–	742	–
CN(C)C(=O)c1ccc(OCCCCC2CCN(C(=O)C(O)(c3cccc(OC(F)(F)F)c3)C(F)(F)F)CC2)cc1Cl (single isomer, unassigned) [Example 3-9, (R or S)-2-chloro-N,N-dimethyl-4-(4-(1-(3,3,3-trifluoro-2-hydroxy-2-(3-(trifluoromethoxy)phenyl)propanoyl)piperidin-4-yl)butoxy)benzamide]	15	64	–	17	–	–	289	–
CN(C)C(=O)c1ccc(OCCCCC2CCN(C(=O)C3(c4ccccc4)CCC3)CC2)cc1Cl [Example 3-7, 2-chloro-N,N-dimethyl-4-(4-(1-(1-phenylcyclobutanecarbonyl)piperidin-4-yl)butoxy)benzamide]	57	54	No IP	0	–	–	–	–
CN(C)C(=O)c1ccc(OCC[C@@H]2CC23CCN(C(=O)C(C)(c2ccccc2)C2CCC2)CC3)cc1Cl (single isomer, unassigned) [Example 12-14, 2-chloro-4-(2-((S or R)-6-((S or R)-2-cyclobutyl-2-phenylpropanoyl)-6-azaspiro[2.5]octan-1-yl)ethoxy)-N,N-dimethylbenzamide]	22	74	–	20	–	–	343	–
COc1cccc([C@](O)(C(=O)N2CCC3(CC2)C[C@@H]3CCCOc2ccc(C(=O)N(C)C)c(Cl)c2)C(F)(F)F)c1 (single isomer, unassigned) [Example 14-7, 2-chloro-N,N-dimethyl-4-(3-((S or R)-6-((S or R)-3,3,3-trifluoro-2-hydroxy-2-(3-methoxyphenyl)propanoyl)-6-azaspiro[2.5]octan-1-yl)propoxyl)benzamide]	9	100	–	46	–	–	186	–
O=C(c1cscn1)N1CCC(CCCCOc2ccc(C(=O)N3CCCC3)c(Cl)c2)CC1 [Example 8-20, (2-chloro-4-(4-(1-(thiazole-4-carbonyl)piperidin-4-yl)butoxy)phenyl) (pyrrolidin-1-yl)methanone]	4410	25	No IP	4	–	–	–	–
